Entries after “also recorded” stand apart in the source; their conditions may differ. Counter-ions that a name gives are not always drawn. Like-named read-outs stand apart in the source and are kept apart here.
How the values were obtained:
hOAT4 (SLC22A11) = molecular target: T1, hOAT4 (SLC22A11) (Homo sapiens, UniProt Q9NSA0); assay: Inhibition of hOAT4-mediated [3H]ES uptake, cell accumulation assay in CHO-hOAT4 cells; format: cell-based
T1 construct: expressed in transfected cells
T1 sequence (Q9NSA0 1-550): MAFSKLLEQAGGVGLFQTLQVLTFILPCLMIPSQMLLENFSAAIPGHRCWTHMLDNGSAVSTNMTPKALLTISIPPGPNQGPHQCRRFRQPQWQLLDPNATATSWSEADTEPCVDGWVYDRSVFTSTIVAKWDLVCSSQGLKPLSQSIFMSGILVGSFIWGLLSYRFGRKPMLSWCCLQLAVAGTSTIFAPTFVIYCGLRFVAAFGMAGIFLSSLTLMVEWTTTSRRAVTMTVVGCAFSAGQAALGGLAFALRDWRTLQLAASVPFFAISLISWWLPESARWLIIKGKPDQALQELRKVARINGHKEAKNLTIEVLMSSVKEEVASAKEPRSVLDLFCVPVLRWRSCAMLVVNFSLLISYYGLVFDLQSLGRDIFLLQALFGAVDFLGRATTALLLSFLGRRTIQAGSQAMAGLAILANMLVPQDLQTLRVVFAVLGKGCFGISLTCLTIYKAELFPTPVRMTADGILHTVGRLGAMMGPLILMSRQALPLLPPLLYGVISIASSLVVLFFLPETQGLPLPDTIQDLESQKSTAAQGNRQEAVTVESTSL
Method: (§1) Derivation and culture of stably transfected Chinese hamster ovary (CHO) cells expressing hOAT1 (CHO-hOAT1) and hOAT4 (CHO-hOAT4), stably transfected human embryonic kidney 293 (HEK) cells expressing hOAT3 (HEK-hOAT3), and their corresponding empty vector transfected background control cell lines, have been described previously.
(§2) The cell accumulation assay protocol was performed as described in our recent publications with minor modifications. In brief, 2 × 10^5 cells/well were seeded in 24-well tissue culture plates and grown in the absence of antibiotics for two days. For transport experiments cells were preincubated in transport buffer without substrates or inhibitors for 10 min after which time the buffer was replaced with 400 μL of fresh transport buffer containing 1 μM [^3H]PAH (0.5 μCi/mL) or [^3H]ES (0.25 μCi/mL) with or without test compounds. After incubation for times specified in the figure legends, cellular uptake was quenched by quickly rinsing each well three times with fresh ice-cold transport buffer. Cells were lysed with 1 M NaOH and radioactivity was measured with a liquid scintillation counter and reported as picomoles of substrate per milligram total protein. All intracellular uptake data were corrected for background accumulation in corresponding empty vector transfected control cells. Kinetic calculations were performed using GraphPad Prism Software version 5.0 (GraphPad Software Inc., San Diego, CA). The half maximal inhibitory concentrations (IC50) and inhibitory constants (K i) were calculated using nonlinear regression with the appropriate models. Results were confirmed by repeating all experiments at least three times with triplicate wells for each data point. […]
Figure 5 Inhibitory effects of the nine test compounds on hOAT4-mediated ES uptake. Ten minute uptake of [^3H]ES (1 μM) was measured in CHO-hOAT4 cells in the absence and presence of test compounds (50 μM) or ES (1000 μM for self-inhibition). Data represent hOAT4-mediated transport specifically, that is, data have been corrected for background ES accumulation measured in empty vector transfected cells. Values are mean ± S.D. of triplicate values from a representative experiment. * denotes P < 0.05, and *** denotes P < 0.001 as determined by one-way ANOVA followed by Dunnett's t-test.

hOAT3 (SLC22A8) [1] = molecular target: T2, hOAT3 (SLC22A8) (Homo sapiens, UniProt Q8TCC7); design: method as in PMID 22877817; settings: linear uptake for initial 1 min; cited from earlier work
T2 construct: expressed in transfected cells
T2 sequence (Q8TCC7 1-542): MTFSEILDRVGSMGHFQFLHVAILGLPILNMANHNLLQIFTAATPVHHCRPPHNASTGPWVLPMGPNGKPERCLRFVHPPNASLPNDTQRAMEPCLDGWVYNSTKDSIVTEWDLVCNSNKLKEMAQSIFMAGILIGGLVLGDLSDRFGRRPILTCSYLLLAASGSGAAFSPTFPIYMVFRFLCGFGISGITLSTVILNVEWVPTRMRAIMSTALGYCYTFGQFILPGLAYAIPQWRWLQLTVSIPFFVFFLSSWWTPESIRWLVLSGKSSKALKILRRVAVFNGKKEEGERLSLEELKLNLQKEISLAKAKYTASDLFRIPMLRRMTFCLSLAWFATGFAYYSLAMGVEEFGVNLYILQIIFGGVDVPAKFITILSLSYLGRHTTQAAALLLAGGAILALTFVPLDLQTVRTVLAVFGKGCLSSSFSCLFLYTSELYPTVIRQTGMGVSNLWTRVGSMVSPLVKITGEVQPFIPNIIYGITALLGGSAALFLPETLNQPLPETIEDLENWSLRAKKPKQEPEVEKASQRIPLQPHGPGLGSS

hOAT3 (SLC22A8) [2] = molecular target: T2, hOAT3 (SLC22A8); assay: Inhibition of hOAT3-mediated [3H]ES uptake, cell accumulation assay in HEK-hOAT3 cells; format: cell-based; settings: 10 min uptake; for inhibition at 50 µM / effect on hOAT3-mediated ES uptake (in words): 50 μM test compound; for inhibition at 50 µM: 1 μM [3H]ES (50-fold excess)
Method: as §1, §2
Figure 4 Inhibitory effects of the nine test compounds on hOAT3-mediated ES uptake. Ten-minute uptake of [^3H]ES (1 μM) was measured in HEK-hOAT3 cells in the absence and presence of test compounds (50 μM) or probenecid (1000 μM). Data represent hOAT3-mediated transport specifically, that is, data have been corrected for background ES accumulation measured in empty vector transfected cells. Values are mean ± S.D. of triplicate values from a representative experiment. * denotes P < 0.05, ** denotes P < 0.01, and *** denotes p < 0.001 as determined by one-way ANOVA followed by Dunnett's t-test.

hOAT1 (SLC22A6) [3] = molecular target: T3, hOAT1 (SLC22A6) (Homo sapiens, UniProt Q4U2R8); assay: Inhibition of hOAT1-mediated [3H]PAH uptake, cell accumulation assay in CHO-hOAT1 cells; format: cell-based; settings: for effect on hOAT1-mediated PAH uptake (in words) / Ki: 1 μM [3H]PAH; for Ki: assuming competitive inhibition, 1 min uptake, read-out: inhibition constant Ki for hOAT1
T3 construct: expressed in transfected cells
T3 sequence (Q4U2R8 1-550 isoform Q4U2R8-2): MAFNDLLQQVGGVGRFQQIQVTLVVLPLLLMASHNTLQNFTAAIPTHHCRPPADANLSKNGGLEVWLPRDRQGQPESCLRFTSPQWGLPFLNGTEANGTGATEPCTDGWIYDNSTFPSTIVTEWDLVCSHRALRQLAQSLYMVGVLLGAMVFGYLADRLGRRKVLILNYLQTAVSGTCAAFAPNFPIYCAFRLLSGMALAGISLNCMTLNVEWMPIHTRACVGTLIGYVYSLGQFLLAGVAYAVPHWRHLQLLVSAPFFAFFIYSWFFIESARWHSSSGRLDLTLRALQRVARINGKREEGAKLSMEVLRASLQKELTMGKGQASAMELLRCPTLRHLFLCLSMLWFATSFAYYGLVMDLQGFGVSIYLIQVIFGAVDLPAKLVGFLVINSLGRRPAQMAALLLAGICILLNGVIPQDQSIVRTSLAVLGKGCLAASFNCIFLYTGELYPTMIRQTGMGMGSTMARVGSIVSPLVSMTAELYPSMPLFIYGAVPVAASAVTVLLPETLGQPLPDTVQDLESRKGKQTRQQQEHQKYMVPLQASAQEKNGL
Method: The cell accumulation assay protocol was performed as described in our recent publications with minor modifications. In brief, 2 × 10^5 cells/well were seeded in 24-well tissue culture plates and grown in the absence of antibiotics for two days. For transport experiments cells were preincubated in transport buffer without substrates or inhibitors for 10 min after which time the buffer was replaced with 400 μL of fresh transport buffer containing 1 μM [^3H]PAH (0.5 μCi/mL) or [^3H]ES (0.25 μCi/mL) with or without test compounds. After incubation for times specified in the figure legends, cellular uptake was quenched by quickly rinsing each well three times with fresh ice-cold transport buffer. Cells were lysed with 1 M NaOH and radioactivity was measured with a liquid scintillation counter and reported as picomoles of substrate per milligram total protein. All intracellular uptake data were corrected for background accumulation in corresponding empty vector transfected control cells. Kinetic calculations were performed using GraphPad Prism Software version 5.0 (GraphPad Software Inc., San Diego, CA). The half maximal inhibitory concentrations (IC50) and inhibitory constants (K i) were calculated using nonlinear regression with the appropriate models. Results were confirmed by repeating all experiments at least three times with triplicate wells for each data point.
Ten-minute uptake of [^3H]PAH (1 μM) was measured in CHO-hOAT1 cells in the absence and presence of test compounds (50 μM) or probenecid (1000 μM). Data represent hOAT1-mediated transport specifically, that is, data have been corrected for background PAH accumulation measured in empty vector transfected cells. Values are mean ± S.D. of triplicate values from a representative experiment. ** denotes P < 0.01, and *** denotes P < 0.001 as determined by one-way ANOVA followed by Dunnett's t-test.
One-minute uptake of [^3H]PAH (1 μM) in CHO-hOAT1 cells was measured in the presence of increasing concentrations (10^−7 to 5 × 10^−4 M) of test compounds. Data were corrected by subtracting background PAH accumulation measured in empty vector transfected cells. IC50 values were determined with nonlinear regression and the “log(inhibitor) versus response” model using GraphPad Prism software. Experiments were repeated three times with triplicate samples and graphs shown are from representative experiments with values plotted as mean ± S.D. (n = 3). The data were used to generate mean IC50 ± S.E.M. estimates.

[4] = human subjects, cited from earlier work
hOAT1 (SLC22A6) [5] = molecular target: T3, hOAT1 (SLC22A6); assay: Inhibition of hOAT1-mediated [3H]PAH uptake, cell accumulation assay in CHO-hOAT1 cells; format: cell-based; settings: dose-response 0.01–500 μM, 1 μM [3H]PAH, 1 min uptake, mean ± S.E.M., read-out: IC50 on hOAT1-mediated PAH transport
[6] = 50 μM test compound, 10 min uptake
[7] = 50 μM test compound, 1 μM [3H]ES, 10 min uptake, CHO-hOAT4 cells
[8] = 50 μM test compound, 1 μM [3H]PAH (50-fold excess), 10 min uptake

effect on hOAT1-mediated PAH uptake (in words) (hOAT1 (SLC22A6) [3]; [6]) | inhibition at 50 µM (hOAT3 (SLC22A8) [2]) [%] | effect on hOAT4-mediated ES uptake (in words) (hOAT4 (SLC22A11); [7]) | effect on hOAT3-mediated ES uptake (in words) (hOAT3 (SLC22A8) [2]; 1 μM [3H]ES) | inhibition at 50 µM (hOAT1 (SLC22A6) [3]; [8]) [%] | Structure (SMILES) | also measured
– | – | – | – | – | C[C@]12CC[C@@H]3c4ccc(OS(=O)(=O)O)cc4CC[C@H]3[C@@H]1CCC2=O [ES, estrone sulfate, reference compound] | inhibition of hOAT4-mediated ES uptake (self-inhibition) (hOAT4 (SLC22A11); unlabeled ES 1000 μM, 1 μM [3H]ES, 10 min uptake, CHO-hOAT4 cells): > 96%; K m of ES uptake in hOAT3 expressing cells (hOAT3 (SLC22A8) [1]): 14.5 µM
– | – | – | – | – | CCCN(CCC)S(=O)(=O)c1ccc(C(=O)O)cc1 [probenecid, reference compound] | inhibition at 1000 µM (hOAT3 (SLC22A8) [2]; probenecid 1000 μM, 1 μM [3H]ES): > 96%
no inhibition | 30 to 35 | – | – | – | Oc1cc(O)c2c(c1)O[C@H](c1ccc(O)c(O)c1)[C@H](O)C2 [Epicatechin] | Cmax ([4]; oral, 37 mg): 200 nM
– | 30 to 35 | significant stimulation of ES uptake | – | 22 | O=C(C=Cc1ccc(O)c(O)c1)OC1CC(OC(=O)C=Cc2ccc(O)c(O)c2)(C(=O)O)CC(O)C1O (stereo not shown) [1,5-Dicaffeoylquinic acid, 1,5-dicaffeoylquinic acid] | Cmax ([4]; oral, 600 mg): 140 nM
– | 30 to 35 | – | – | – | CCCCCCC=CCCCCCCCc1cccc(O)c1C(=O)O [ginkgolic acid (15 : 1)] | –
– | 41 | – | – | 42 | CCCCCCC=CCCCCCCCCCc1cccc(O)c1C(=O)O [ginkgolic acid (17 : 1)] | –
– | 41 | – | – | 64 | O=C(/C=C/c1ccc(O)c(O)c1)O[C@@H]1C[C@@](OC(=O)/C=C/c2ccc(O)c(O)c2)(C(=O)O)C[C@@H](O)[C@@H]1O [1,3-Dicaffeoylquinic acid, 1,3-dicaffeoylquinic acid] | IC50 (hOAT1 (SLC22A6) [5]): 1200 ± 400 nM; Ki (hOAT1 (SLC22A6) [3]): 1100 ± 200 nM
– | – | significant stimulation of ES uptake | failed to produce significant inhibition | – | CC1(C)[C@@H](O)CC[C@]2(C)[C@H]3C(=O)C=C4[C@@H]5C[C@@](C)(C(=O)O)CC[C@]5(C)CC[C@@]4(C)[C@]3(C)CC[C@@H]12 [18β-glycyrrhetinic acid] | IC50 (hOAT1 (SLC22A6) [5]): 2700 ± 200 nM; inhibition of hOAT1-mediated PAH uptake (hOAT1 (SLC22A6) [3]; [8]): 56%; Ki (hOAT1 (SLC22A6) [3]): 2500 ± 200 nM; Cmax ([4]; oral, 130–144 mg glycyrrhizin, assuming plasma 18α- : 18β-glycyrrhetinic acid about 1 : 3): 110 to 2900 nM
no inhibition | – | – | failed to produce significant inhibition | – | Oc1cc(O)c2c(c1)O[C@H](c1ccc(O)c(O)c1)[C@@H](O)C2 [Catechin] | inhibition at 50 µM (hOAT4 (SLC22A11); [7]): 32%; IC50 (hOAT4 (SLC22A11); inferred from level of inhibition at 50 μM, no kinetic study, read-out: IC50 on hOAT4 transport activity): > 50000 nM

Structure (SMILES) | effect on hOAT1-mediated PAH uptake (in words) (hOAT1 (SLC22A6) [3]; [6]) | inhibition at 50 µM (hOAT3 (SLC22A8) [2]) [%] | effect on hOAT4-mediated ES uptake (in words) (hOAT4 (SLC22A11); [7]) | effect on hOAT3-mediated ES uptake (in words) (hOAT3 (SLC22A8) [2]; 1 μM [3H]ES) | inhibition at 50 µM (hOAT1 (SLC22A6) [3]; [8]) [%] | also measured
C[C@H]1[C@H](C)CC[C@]2(C(=O)O)CC[C@]3(C)C(=CC[C@@H]4[C@@]5(C)CC[C@H](O)C(C)(C)[C@@H]5CC[C@]43C)[C@H]12 [Ursolic acid] | significant stimulation of uptake | – | without effect | failed to produce significant inhibition; also recorded: without effect | – | Cmax ([4]; i.v., 186 mg): 7400 nM
